Source: US20230146455A1, “TREATMENT OF INFLAMMATORY DISEASES WITH PEPTIDES AND PHARMACEUTICAL COMPOSITIONS” (Yuyu Pharma, Inc., priority 2020, published 2023)
Where “and” joins values, the source holds several entries; their conditions need not be identical. Equal values may be shown once. Where a SMILES comes first, the peptide text is derived from it. [ ]: non-standard residue; d: D form. Hyp = O=C(O)[C@@H]1C[C@@H](O)CN1

Test system: CCL20/MIP-3 alpha
Assay: Example 9 Luminex, LPS hPBMCs: CCL20/MIP-3 alpha
Assay type: cell-based, human
Procedure: Treatment Human PBMCs were pretreated with YY-101, YDE-011 and YDE-043 or reference compound; Xiidra® at various concentration (ranging from 1 nM to 100 uM) for 2 h before stimulation. An equal volume of 0.5% DMSO was used as a vehicle control. Then, the cells were treated with LPS at 5 ug/ml. The supernatants from treated cells were harvested at 24 h and placed in a 96 well for Luminex cytokine & chemokine profiling using a Luminex 200 multiplex assay (Luminex; R&D system, USA).
The main study arm with triplicate wells per group in a 24-well plate: • 1. Blank • 2. PBMC: 0.5% DMSO • 3. PBMC+LPS (5 ug/ml) • 4. PBMC+YY-101 100 uM • 5. PBMC+YY-101 10 uM • 6. PBMC+YY-101 1 uM • 7. PBMC+YY-101 0.1 uM • 8. PBMC+YY-101 0.01 uM • 9. PBMC+LPS (5 ug/ml)+Xiidra®100 uM • 10. PBMC+LPS (5 ug/ml)+Xiidra® 10 uM • 11. PBMC+LPS (5 ug/ml)+Xiidra® 1 uM • 12. PBMC+LPS (5 ug/ml)+Xiidra®0.1 uM • 13. PBMC+LPS (5 ug/ml)+Xiidra®0.01 uM • 14. PBMC+LPS (5 ug/ml)+Xiidra®0.001 uM • 15. PBMC+LPS (5 ug/ml)+YY-101 100 uM • 16. PBMC+LPS (5 ug/ml)+YY-101 10 uM • 17. PBMC+LPS (5 ug/ml)+YY-101 1 uM • 18. PBMC+LPS (5 ug/ml)+YY-101 0.1 uM • 19. PBMC+LPS (5 ug/ml)+YY-101 0.01 uM • 20. PBMC+LPS (5 ug/ml)+YY-101 0.001 uM • 21. PBMC+LPS (5 ug/ml)+YDE-011 100 uM • 22. PBMC+LPS (5 ug/ml)+YDE-011 10 uM • 23. PBMC+LPS (5 ug/ml)+YDE-011 1 uM • 24. PBMC+LPS (5 ug/ml)+YDE-011 0.1 uM • 25. PBMC+LPS (5 ug/ml)+YDE-011 0.01 uM • 26. PBMC+LPS (5 ug/ml)+YDE-011 0.001 uM • 27. PBMC+LPS (5 ug/ml)+YDE-043 100 uM • 28. PBMC+LPS (5 ug/ml)+YDE-043 10 uM • 29. PBMC+LPS (5 ug/ml)+YDE-043 1 uM • 30. PBMC+LPS (5 ug/ml)+YDE-043 0.1 uM • 31. PBMC+LPS (5 ug/ml)+YDE-043 0.01 uM • 32. PBMC+LPS (5 ug/ml)+YDE-043 0.001 uM
Multiplex assay was used to measure 30 cytokines and chemokines. The 1:2, 1:10 and 1:200 diluted cell supernatant and serial dilution of the standard were dispensed into a 96 well plate at 50 ul/well. Then, the pre-mixed cocktail of antibody-coated magnetic beads was dispensed at 50 ul/well and incubated at room temperature for 2 h in a horizontal orbital microplate shaker at 800±500 rpm. The beads were washed using a magnetic device to prevent loss. The biotin-antibody was dispensed in 50 ul of each well and incubated at room temperature for 1 h in a shaker at 800±500 rpm. After washing, streptavidin-PE was added at 50 ul/well and incubated at room temperature for 30 min in a shaker under the same conditions. Finally, after washing, wash buffer (100 ul/well) was added to the plate and incubated in a shaker for 2 min. The Luminex™ 200 setting were set according to the manufacturer's protocol. The data was calculated with a standard five-parameter logistic nonlinear regression analysis of the data (xPonent software 4.2, USA). The levels of cytokine/chemokine are normalized to the live cell counts (1×10^5 cells/mL) and presented as concentrations per mL (pg/mL or ng/mL).

[1] = PBMC + LPS(5 ug/ml) + test article 0.001 uM, Mean
[2] = PBMC + LPS(5 ug/ml) + test article 0.001 uM, individual replicate
[3] = PBMC + LPS(5 ug/ml) + test article 0.01 uM, Mean
[4] = PBMC + LPS(5 ug/ml) + test article 0.01 uM, individual replicate
[5] = PBMC + LPS(5 ug/ml) + test article 0.1 uM, Mean
[6] = PBMC + LPS(5 ug/ml) + test article 0.1 uM, individual replicate
[7] = PBMC + LPS(5 ug/ml) + test article 1 uM, Mean
[8] = PBMC + LPS(5 ug/ml) + test article 1 uM, individual replicate
[9] = PBMC + LPS(5 ug/ml) + test article 10 uM, Mean
[10] = PBMC + LPS(5 ug/ml) + test article 10 uM, individual replicate
[11] = PBMC + LPS(5 ug/ml) + test article 100 uM, Mean
[12] = PBMC + LPS(5 ug/ml) + test article 100 uM, individual replicate
[13] = PBMC + test article 0.01 uM, no LPS, Mean
[14] = PBMC + test article 0.01 uM, no LPS, individual replicate
[15] = PBMC + test article 0.1 uM, no LPS, Mean
[16] = PBMC + test article 0.1 uM, no LPS, individual replicate
[17] = PBMC + test article 1 uM, no LPS, Mean
[18] = PBMC + test article 1 uM, no LPS, individual replicate
[19] = PBMC + test article 10 uM, no LPS, Mean
[20] = PBMC + test article 10 uM, no LPS, individual replicate
[21] = PBMC + test article 100 uM, no LPS, Mean
[22] = PBMC + test article 100 uM, no LPS, individual replicate

CC(C)C[C@H](NC(=O)CNC(=O)[C@H](CC(=O)O)NC(=O)[C@H](CCC(N)=O)NC(=O)CNC(=O)[C@@H]1C[C@@H](O)CN1)C(=O)N[C@@H](C)C(=O)NCC(=O)N1CCC[C@H]1C(=O)N[C@@H](CCCCN)C(=O)O [YY-101] (H-[Hyp]GQDGLAGPK-OH; N-terminus and C-terminus assumed)
Concentration, CCL20/MIP-3 alpha [1]: 315.3 pg/mL | MFI, CCL20/MIP-3 alpha [1]: 346.7 | conc/live cell, CCL20/MIP-3 alpha [1]: 49.1 pg/10^5 | Concentration, CCL20/MIP-3 alpha [2]: 301.0 pg/mL and 289.9 pg/mL and 355.1 pg/mL | MFI, CCL20/MIP-3 alpha [2]: 329.0 and 315.5 and 395.5 | conc/live cell, CCL20/MIP-3 alpha [2]: 52.8 pg/10^5 and 40.8 pg/10^5 and 53.8 pg/10^5 | Concentration, CCL20/MIP-3 alpha [3]: 377.7 pg/mL | MFI, CCL20/MIP-3 alpha [3]: 423.7 | conc/live cell, CCL20/MIP-3 alpha [3]: 61.2 pg/10^5 | Concentration, CCL20/MIP-3 alpha [4]: 383.7 pg/mL and 338.9 pg/mL and 410.6 pg/mL | MFI, CCL20/MIP-3 alpha [4]: 431.0 and 375.5 and 464.5 | conc/live cell, CCL20/MIP-3 alpha [4]: 60.0 pg/10^5 and 56.5 pg/10^5 and 67.3 pg/10^5 | Concentration, CCL20/MIP-3 alpha [5]: 364.1 pg/mL | MFI, CCL20/MIP-3 alpha [5]: 406.7 | conc/live cell, CCL20/MIP-3 alpha [5]: 62.5 pg/10^5 | Concentration, CCL20/MIP-3 alpha [6]: 378.5 pg/mL and 364.4 pg/mL and 349.4 pg/mL | MFI, CCL20/MIP-3 alpha [6]: 424.5 and 407.0 and 388.5 | conc/live cell, CCL20/MIP-3 alpha [6]: 61.0 pg/10^5 and 70.1 pg/10^5 and 56.4 pg/10^5 | Concentration, CCL20/MIP-3 alpha [7]: 338.5 pg/mL | MFI, CCL20/MIP-3 alpha [7]: 375.0 | conc/live cell, CCL20/MIP-3 alpha [7]: 52.1 pg/10^5 | Concentration, CCL20/MIP-3 alpha [8]: 323.0 pg/mL and 330.0 pg/mL and 362.4 pg/mL | MFI, CCL20/MIP-3 alpha [8]: 356.0 and 364.5 and 404.5 | conc/live cell, CCL20/MIP-3 alpha [8]: 51.3 pg/10^5 and 46.5 pg/10^5 and 58.4 pg/10^5 | Concentration, CCL20/MIP-3 alpha [9]: 368.2 pg/mL | MFI, CCL20/MIP-3 alpha [9]: 411.8 | conc/live cell, CCL20/MIP-3 alpha [9]: 55.3 pg/10^5 | Concentration, CCL20/MIP-3 alpha [10]: 324.3 pg/mL and 377.7 pg/mL and 402.6 pg/mL | MFI, CCL20/MIP-3 alpha [10]: 357.5 and 423.5 and 454.5 | conc/live cell, CCL20/MIP-3 alpha [10]: 54.0 pg/10^5 and 59.0 pg/10^5 and 53.0 pg/10^5 | Concentration, CCL20/MIP-3 alpha [11]: 578.6 pg/mL | MFI, CCL20/MIP-3 alpha [11]: 677.7 | conc/live cell, CCL20/MIP-3 alpha [11]: 100.0 pg/10^5 | Concentration, CCL20/MIP-3 alpha [12]: 590.1 pg/mL and 591.7 pg/mL and 553.9 pg/mL | MFI, CCL20/MIP-3 alpha [12]: 692.5 and 694.5 and 646.0 | conc/live cell, CCL20/MIP-3 alpha [12]: 93.7 pg/10^5 and 95.4 pg/10^5 and 110.8 pg/10^5 | Concentration, CCL20/MIP-3 alpha [13]: 12.1 pg/mL | MFI, CCL20/MIP-3 alpha [13]: 11.0 | conc/live cell, CCL20/MIP-3 alpha [13]: 2.5 pg/10^5 | Concentration, CCL20/MIP-3 alpha [14]: 7.3 pg/mL and 16.8 pg/mL | MFI, CCL20/MIP-3 alpha [14]: 7.5 and 14.5 | conc/live cell, CCL20/MIP-3 alpha [14]: 1.4 pg/10^5 and 3.5 pg/10^5 | Concentration, CCL20/MIP-3 alpha [15]: 9.5 pg/mL | MFI, CCL20/MIP-3 alpha [15]: 9.0 | conc/live cell, CCL20/MIP-3 alpha [15]: 1.8 pg/10^5 | Concentration, CCL20/MIP-3 alpha [16]: 7.3 pg/mL and 11.6 pg/mL | MFI, CCL20/MIP-3 alpha [16]: 7.5 and 10.5 | conc/live cell, CCL20/MIP-3 alpha [16]: 1.7 pg/10^5 and 2.0 pg/10^5 | Concentration, CCL20/MIP-3 alpha [17]: 8.8 pg/mL | MFI, CCL20/MIP-3 alpha [17]: 8.5 | conc/live cell, CCL20/MIP-3 alpha [17]: 1.6 pg/10^5 | Concentration, CCL20/MIP-3 alpha [18]: 7.3 pg/mL and 10.2 pg/mL | MFI, CCL20/MIP-3 alpha [18]: 7.5 and 9.5 | conc/live cell, CCL20/MIP-3 alpha [18]: 1.3 pg/10^5 and 1.9 pg/10^5 | Concentration, CCL20/MIP-3 alpha [19]: 41.3 pg/mL | MFI, CCL20/MIP-3 alpha [19]: 36.5 | conc/live cell, CCL20/MIP-3 alpha [19]: 6.6 pg/10^5 | Concentration, CCL20/MIP-3 alpha [20]: 57.4 pg/mL and 25.3 pg/mL | MFI, CCL20/MIP-3 alpha [20]: 51.5 and 21.5 | conc/live cell, CCL20/MIP-3 alpha [20]: 9.0 pg/10^5 and 4.1 pg/10^5 | Concentration, CCL20/MIP-3 alpha [21]: 22.4 pg/mL | MFI, CCL20/MIP-3 alpha [21]: 19.3 | conc/live cell, CCL20/MIP-3 alpha [21]: 3.4 pg/10^5 | Concentration, CCL20/MIP-3 alpha [22]: 29.8 pg/mL and 14.9 pg/mL | MFI, CCL20/MIP-3 alpha [22]: 25.5 and 13.0 | conc/live cell, CCL20/MIP-3 alpha [22]: 4.7 pg/10^5 and 2.1 pg/10^5 | LPS-induced CCL20 levels (in words) (at 100.iM, LPS 5 ug/mL 24 hrs): further increased
